Test results published in patent US10604514B2, “6-(5-membered heteroaryl)isoquinolin-3-yl carboxamides and preparation and use thereof” (Samumed, LLC, priority 2017, dated 2020).
Where two headings read alike, the source gives them in different places.

Key:
[1] = target: DYRK1A kinase (Homo sapiens (Human), UniProt Q13627); assay: DYRK1A kinase assay (Ser/Thr 18 peptide Z-lyte, FRET)
[2] = target: GSK3β kinase (Homo sapiens (Human), UniProt P49841); assay: GSK3β kinase assay (Ser/Thr 09 peptide Z-lyte, FRET); format: biochemical; settings: method text calls the value IC50;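 note: Coumarin/fluorescein emission ratio converted to percent phosphorylation against unphosphorylated (0%) and phosphorylated (100%) controls, 1 h compound incubation at room temperature, 11-point threefold dilutions from 10 µM, run in duplicate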
GSK3β kinase, sequence (P49841 whole entry): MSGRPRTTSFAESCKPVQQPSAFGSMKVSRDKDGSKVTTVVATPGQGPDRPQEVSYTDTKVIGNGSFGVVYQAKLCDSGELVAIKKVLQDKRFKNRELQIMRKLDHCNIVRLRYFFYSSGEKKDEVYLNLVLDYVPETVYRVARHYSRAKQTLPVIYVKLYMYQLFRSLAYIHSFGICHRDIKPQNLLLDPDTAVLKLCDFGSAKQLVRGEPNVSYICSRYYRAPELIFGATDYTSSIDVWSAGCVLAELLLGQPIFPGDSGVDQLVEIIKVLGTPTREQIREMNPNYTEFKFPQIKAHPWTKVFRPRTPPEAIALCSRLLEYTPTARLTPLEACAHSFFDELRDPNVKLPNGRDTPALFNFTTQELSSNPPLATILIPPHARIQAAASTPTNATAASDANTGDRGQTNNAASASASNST

[3] = tested on: IL-6; assay: IL-6 inhibition in LPS-stimulated human peripheral blood mononuclear cells (HTRF); format: cell-based; settings: Homo sapiens, PBMC; for EC50: IL-6, LPS-stimulated huPBMCs, HTRF
Procedure, shortened: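 EC50 from a 4-parameter fit of DMSO-normalized HTRF (665/620 nm) IL-6 signal, duplicates. Compound was added to fresh human PBMCs in 1% FBS RPMI for 2 h (top 10 μM, 3-fold, 0.25% DMSO) before 22 h stimulation with LPS at 50 ng/mL, 37 °C.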

[4] = tested on: Tau phosphorylation at Ser396 (pSer396), SH-SY5Y cells; assay: Tau phosphorylation at Ser396 (pSer396) in SH-SY5Y cells, ELISA/western blot; format: cell-based, human; settings: Homo sapiens; SH-SY5Y cells, overnight (16-18 h); read-out: pSer396 Tau EC50;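 note: cell lysates probed for reduced Tau pSer396 via ELISA (colorimetric) or western blot (chemiluminescence), both with one shared pSer396 antibody, EC50 for lowering phosphorylation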
[5] = tested on: LL29 cells (primary human fibroblasts derived from IPF patients), α-smooth muscle actin; assay: Inhibition of fibrotic process: αSMA in TGF-β1-treated primary human fibroblasts from IPF patients (LL29 cells); format: cell-based; settings: Homo sapiens, Fibroblast; for EC50: 96 h, % αSMA-positive LL29 cells, TGF-β1 20 ng/mL, 4 days
Procedure, shortened: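 Read-out is the percentage of αSMA-positive cells by high-content imaging, excluding SYTOX green-positive dead/apoptotic cells, normalized to TGF-β1-only wells on the same plate. LL29 cells were exposed for 4 days at 37 °C to 20 ng/mL TGF-β1 plus 11-point, 2-fold compound dilutions in 0.1% DMSO.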

[6] = tested on: Wnt activity (Sp5-Luc reporter in SW480 colon carcinoma cells); assay: Wnt activity screening assay (Sp5-Luc reporter gene assay); format: cell-based, human; settings: Homo sapiens; for inhibition at 10 µM: SW480, read-out: percent inhibition at 10 μM; for EC50: Sp5-Luc reporter, SW480 cells, 36 to 48 hours
Procedure, shortened: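 Compounds at 10 points (1:3 steps, top 10 μM, 0.1% DMSO final) were incubated 36 to 48 h at 37° C with stable Sp5-Luc SW480 reporter cells in 1% FBS medium. Luciferase luminescence was then read and expressed relative to DMSO-only cells. Four-parameter variable-slope fitting yielded EC50 values.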

[7] = tested on: SW480 colon carcinoma cells; assay: Cell viability assay (CellTiter-Glo) in SW480 cells; format: cell-based, human; settings: Homo sapiens; for EC50: 96 h, cell viability, SW480 cells, four days, CellTiter-Glo; for inhibition at 10 µM: SW480, read-out: percent inhibition at 10 μM;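 for all read-outs here: SW480 cells stably carrying an Sp5-luciferase TCF/LEF reporter, luminescent ATP signal as viability measure, DMSO-treated cells as control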
Protocol: Representative compounds were screened using the assay procedure to assess the effect on cell viability as described below.
SW480 colon carcinoma cells were transduced with a lentiviral vector expressing luciferase with a human Sp5 promoter consisting of a sequence of eight TCF/LEF binding sites. SW480 cells stably expressing the Sp5-Luc reporter gene and a hygromycin resistance gene were selected by treatment with 150 μg/mL of hygromycin for 7 days. These stably transduced SW480 cells were expanded in cell culture and used for all further screening activities. Each compound was dissolved in DMSO as a 10 mM stock and used to prepare compound source plates.
For the Cell Viability Assays, the cells were plated at 2,000 cells/well in 384-well plates with a DMEM medium containing 1% fetal bovine serum, and 1% Penicillin-Streptomycin and incubated for four days hours at 37° C. and 5% CO2. Eight replicates of DMSO-treated cells served as controls and cells treated with compound were performed in duplicate.
After incubation, 10 μL of CellTiter-Glo (Promega) was added to each well allowed to incubate for approximately 12 minutes.
Dose-response curves were generated and EC50 concentration values were calculated using non-linear regression curve fit in the GraphPad Prism (San Diego, Calif.) or Dotmatics' Studies Software (Bishops Stortford, UK).

[8] = DYRK1A kinase, method text calls the value IC50

Row | EC50 [1] [nM] | EC50 [2] [nM] | EC50 [3] [nM] | EC50 [4] [nM] | EC50 [6] [nM] | EC50 [7] [nM] | EC50 [1, 8] [nM] | SMILES | EC50 [5] [nM] | inhibition at 10 µM [6] [%] | inhibition at 10 µM ([3]; read-out: percent value in parentheses below EC50 >10) [%] | inhibition at 10 µM ([5]; read-out: percent inhibition at 10 μM) [%] | inhibition at 10 µM [7] [%]
1 | 2 | 874 | 1130 | > 10000 | > 10000 | 305 |  | [2H]c1c([2H])c(C(=O)Nc2cc3cc(-c4cncn4C)ccc3cn2)c([2H])c([2H])c1Cl [Compound 83, 4-Chloro-N-(6-(1-methyl-1H-imidazol-5-yl)isoquinolin-3-yl)benzamide-2,3,5,6-d4] | 483 | 29.7 |  |  | 
2 | 2 | 1050 | 1300 | 1400 | > 10000 | 494 |  | [2H]C([2H])([2H])c1ccc(C(=O)Nc2cc3cc(-c4cncn4C)ccc3cn2)cc1 [Compound 84, 4-(Methyl-d3)-N-(6-(1-methyl-1H-imidazol-5-yl)isoquinolin-3-yl)benzamide] | 630 | 25.5 |  |  | 
3 | 2 | 847 | 1220 | 1400 | 233 | 487 |  | [2H]c1c([2H])c(C(=O)Nc2cc3cc(-c4cncn4C)ccc3cn2)c([2H])c([2H])c1C [Compound 85, 4-Methyl-N-(6-(1-methyl-1H-imidazol-5-yl)isoquinolin-3-yl)benzamide-2,3,5,6-d4] | 557 |  |  |  | 
4 | 2 | 1740 | 2170 | 3040 | 350 | 515 |  | [2H]c1c([2H])c(C([2H])([2H])[2H])c([2H])c([2H])c1C(=O)Nc1cc2cc(-c3cncn3C)ccc2cn1 [Compound 86, 4-(Methyl-d3)-N-(6-(1-methyl-1H-imidazol-5-yl)isoquinolin-3-yl) benzamide-2,3,5,6-d4] | 556 |  |  |  | 
5 | 3 | 1450 | 1170 | 896 | 214 | 489 |  | [2H]C([2H])([2H])Oc1ccc(C(=O)Nc2cc3cc(-c4cncn4C)ccc3cn2)cc1 [Compound 87, 4-(Methoxy-d3)-N-(6-(1-methyl-1H-imidazol-5-yl)isoquinolin-3-yl) benzamide] | 132 |  |  |  | 
6 | 2 | 1010 | 1200 | 16 | 179 | 480 |  | [2H]c1c([2H])c(C(=O)Nc2cc3cc(-c4cncn4C)ccc3cn2)c([2H])c([2H])c1OC([2H])([2H])[2H] [Compound 88, 4-(Methoxy-d3)-N-(6-(1-methyl-1H-imidazol-5-yl)isoquinolin-3-yl) benzamide-2,3,5,6-d4] | 311 |  |  |  | 
7 | 2 | 533 | 1050 | 594 | 155 | 480 |  | [2H]c1c([2H])c(C(=O)Nc2cc3cc(-c4cncn4C)ccc3cn2)c([2H])c([2H])c1OC [Compound 89, 4-Methoxy-N-(6-(1-methyl-1H-imidazol-5-yl)isoquinolin-3-yl)benzamide-2,3,5,6-d4] | 190 |  |  |  | 
8 | 4 | 388 | 606 | 171 | 159 | 312 |  | [2H]c1c([2H])c([2H])c(/C=C/C(=O)Nc2cc3cc(-c4cnc(C)n4C)ccc3cn2)c([2H])c1[2H] [Compound 90, (E)-N-(6-(1,2-Dimethyl-1H-imidazol-5-yl)isoquinolin-3-yl)-3-(phenyl-2,3,4,5,6-d5)acrylamide] | 299 |  |  |  | 
9 | 5 | 454 | 679 | 68 | 197 | 314 |  | [2H]/C(C(=O)Nc1cc2cc(-c3cnc(C)n3C)ccc2cn1)=C(/[2H])c1c([2H])c([2H])c([2H])c([2H])c1[2H] [Compound 91, (E)-N-(6-(1,2-Dimethyl-1H-imidazol-5-yl)isoquinolin-3-yl)-3-(phenyl-2,3,4,5,6-d5)acrylamide-2,3-d2] | 289 |  |  |  | 
10 | 10 | 66 | 3180 | 769 | 3140 | 4080 |  | [2H]C([2H])(C(=O)Nc1cc2cc(-c3cnc(C)n3C)ccc2cn1)c1ccc(F)cc1 [Compound 92, N-(6-(1,2-Dimethyl-1H-imidazol-5-yl)isoquinolin-3-yl)-2-(4-fluorophenyl) acetamide-2,2-d2] | 2710 |  |  |  | 
11 | 2 | 238 | 280 | 259 | 67 | 98 |  | [2H]c1c([2H])c([2H])c(/C=C/C(=O)Nc2cc3cc(-c4cncn4C)ccc3cn2)c([2H])c1[2H] [Compound 93, (E)-N-(6-(1-methyl-1H-imidazol-5-yl)isoquinolin-3-yl)-3-(phenyl-2,3,4,5,6-d5)acrylamide] | 145 |  |  |  | 
12 | 2 | 276 | 319 | 244 | 88 | 104 |  | [2H]/C(C(=O)Nc1cc2cc(-c3cncn3C)ccc2cn1)=C(/[2H])c1c([2H])c([2H])c([2H])c([2H])c1[2H] [Compound 94, (E)-N-(6-(1-Methyl-1H-imidazol-5-yl)isoquinolin-3-yl)-3-(phenyl-2,3,4,5,6-d5)acrylamide-2,3-d2] | 125 |  |  |  | 
13 | 4 | 38 | 339 | 76 | 1070 | 766 |  | [2H]C([2H])(C(=O)Nc1cc2cc(-c3cncn3C)ccc2cn1)c1ccc(F)cc1 [Compound 95, 2-(4-Fluorophenyl)-N-(6-(1-methyl-1H-imidazol-5-yl)isoquinolin-3-yl) acetamide-2,2-d2] | 276 |  |  |  | 
14 |  | 5420 | > 10000 | > 10000 | > 10000 | > 10000 | 846 | Cn1cc(-c2cc(F)c3cnc(NC(=O)[C@H]4CC[C@@H](N(C)C)CC4)cc3c2)cn1 [Compound 96, cis-4-(Dimethylamino)-N-(8-fluoro-6-(1-methyl-1H-pyrazol-4-yl)isoquinolin-3-yl)cyclohexane-1-carboxamide] | > 10000 | 0 | 3.6 | 36 | 2.3
15 |  | 20 | 365 | 184 | 1470 | 806 | 14 | Cn1cc(-c2cc(F)c3cnc(NC(=O)[C@H]4CC[C@@H](N5CCOCC5)CC4)cc3c2)cn1 [Compound 97, cis-N-(8-Fluoro-6-(1-methyl-1H-pyrazol-4-yl)isoquinolin-3-yl)-4-morpholinocyclohexane-1-carboxamide] | 200 |  |  |  | 
16 |  | 8 | 1360 | 208 | 589 | 1080 | 4 | Cn1cc(-c2ccc3cnc(NC(=O)[C@H]4CC[C@H](N5CCCC5)CC4)cc3c2)nn1 [Compound 99, trans-N-(6-(1-Methyl-1H-1,2,3-triazol-4-yl)isoquinolin-3-yl)-4-(pyrrolidin-1-yl)cyclohexane-1-carboxamide] | 72 |  |  |  | 
17 |  | 11 | 2020 | 113 | 720 | 1530 | 3 | Cn1cc(-c2ccc3cnc(NC(=O)[C@H]4CC[C@H](N5CCOCC5)CC4)cc3c2)nn1 [Compound 100, trans-N-(6-(1-Methyl-1H-1,2,3-triazol-4-yl)isoquinolin-3-yl)-4-morpholinocyclohexane-1-carboxamide] | 64 |  |  |  | 
18 |  | 1030 | 3590 | 5400 | > 10000 | > 10000 | 22 | Cc1ncc(-c2cc(F)c3cnc(NC(=O)[C@H]4CC[C@H](C(=O)N5CCN(C)CC5)CC4)cc3c2)o1 [Compound 101, trans-N-(8-fluoro-6-(2-methyloxazol-5-yl)isoquinolin-3-yl)-4-(4-methylpiperazine-1-carbonyl)cyclohexane-1-carboxamide] | 3070 | 6.3 |  |  | 18.8
